Reference: patent US9962364B2, “Wound healing accelerator” (priority 2012, dated 2018)

System: mouse-derived 3T3-L1 fibroblasts
Test: Cell growth of mouse fibroblasts by MTT assay after treating for one minute (Tests 1, 2, 4)
Format: cell-based
Conditions: treatment for 1 minute, then 24 hours of culture, versus physiological saline control
Method: Specifically, after 20 hours of culture, 10 μl of MTT reagent (from Trevigen Inc.) was added to each well and the cells were further cultured for 4 hours under conditions of 37° C. and 5% CO2. After the culture, 100 μl of the Detergent Reagent (Trevigen Inc.) was each added and the cells were left in the dark overnight at room temperature. The absorbance at 595 nm was then determined using a microplate reader (FilterMaxTM F5 Multi-Mode Microplate Reader, Molecular Devices, LLC.). […] The absorbance of the control group in Test 1 was 0.289±0.016. Gallic acid (from Tokyo Chemical Industry Co., Ltd.), caffeic acid (from Tokyo Chemical Industry Co., Ltd.), (+)-catechin (from Tokyo Chemical Industry Co., Ltd.) and chlorogenic acid (from Sigma-Aldrich Co. LLC.) were assayed. […] The absorbance of the control group in Test 2 was 0.196±0.011. Green tea extract (from MARUZEN PHARMACEUTICALS CO., LTD.) was assayed. […] The absorbance of the control group in Test 4 was 0.276±0.010.

## O=C(O)c1cc(O)c(O)c(O)c1 [gallic acid]
  growth of fibroblasts (extent of cell growth by MTT assay): no growth of fibroblasts was observed
